From PubChem BioAssay AID2060493 (Molecular Pharmacology Branch, DTP, NCI, 2025)

System: 616215-338-R-J1-PDC tumor spheroids, viability
Test: Anticancer human tumor 616215-338-R-J1-PDC patient-derived colon adenocarcinoma cell line growth inhibition [GQUAD]
Settings: spheroids with HUVEC and MSC; for IC50: curve of first compound; for viability, T/C: stronger effect = lower value
Excerpt: DNA G-quadruplex Stabilizer Agents in Combinations in Complex Spheroids
A high-throughput screen of multi-cell type tumor spheroids was designed to identify active combinations of DNA G-quadruplex stabilizer agents and targeted small molecules. Complex spheroids include a stromal component modeled by human endothelial cells (HUVEC) and fibroblasts modeled by human mesenchymal stem cells (MSCs). The concentration ranges selected for each drug and investigational agent were based upon clinically achievable concentrations if the clinical Cmax of the agent was known.
Compounds. The drugs and investigational agents: pidnarulex (CX-5461; NSC782164), APTO-253 (NSC789042), BRACO-19 (NSC847499), peposertib (NSC802822), ceralasertib (NSC780249), elimusertib (NSC800525), camonsertib (NSC841442), AZD-1390 (NSC803789), olaparib (NSC753686), talazoparib (NSC767125), ART-558 (NSC835418), sotorasib (NSC818433), MRTX-1133 (NSC836407), SN-38 (NSC673596), topotecan (NSC609699), etoposide (NSC141540), doxorubicin (NSC123127), gemcitabine (NSC613327), 5-fluorouracil (NSC19893), paclitaxel (NSC125973), vemurafenib (NSC761431), panobinostat (NSC761190), R-306465 (JNJ-16241199; NSC773264), adavosertib (NSC754352), TP-3654 (NSC805149), carboplatin (NSC241240), KSQ-4279 (NSC840948), and staurosporine (NSC755774) were obtained from the National Cancer Institute (NCI) Developmental Therapeutics Program Chemical Repository (34). The FDA-approved anticancer drug set is available from the NCI Developmental Therapeutics Program. […] The stock solutions were prepared in dimethyl sulfoxide (DMSO, Sigma-Aldrich, St. Louis, MO, cat. D2650) at 800-fold the tested concentration and stored at -70 degrees C prior to their use. All drugs and investigational agents were tested over a range starting from a high concentration at or near the clinical Cmax and decreasing in half-log increments. If the clinical Cmax for an agent had not been determined, the highest concentration tested was 10 microM.
2.3 Cell Culture. All cells were maintained in an incubator at 37 degrees C and 5% CO2 with 95% humidity. The PDC lines were cultured according to standard operating procedures established by the NCI PDMR. All PDCs were thawed and cultured in Matrigel-coated flasks prepared with a working solution of 1X Ham's F-12 nutrient mix, without supplementation (Invitrogen, cat. 11765054), 100 U/mL penicillin-streptomycin (Invitrogen, cat. 15140122), and 2.5% Matrigel (Corning Inc., cat. 354248) for the first three passages. The 857933-349-R-J2-PDC line was cultured in 6C/Colon 1B media, which includes advanced DMEM/F-12 (Thermo Fisher Scientific, cat. 12634028), 10 mM HEPES (Thermo Fisher Scientific, cat. 15630080), 1X GlutaMAX supplement (Thermo Fisher Scientific, cat. 35050061), 0.1 mg/mL primocin (InvivoGen, cat. ant-pm-2), 10% defined fetal bovine serum, heat inactivated (HyClone Laboratories Inc., cat. SH30070.03HI), 50% L-WRN conditioned media (ATCC, cat. CRL-3276), 1.25 mM N-Acetyl-L-cysteine (Sigma-Aldrich, cat. A9165), 10 mM nicotinamide (Sigma-Aldrich, cat. N0636), 1X B-27 supplement (Thermo Fisher Scientific, cat. 17504044), 1X N-2 supplement (Thermo Fisher Scientific, cat. 17502048), 10 microM Y-27632 dihydrochloride (Tocris Bioscience, cat. 1254), and 50 ng/mL human EGF recombinant protein (Thermo Fisher Scientific, cat. PHG0311). The 485176-168-R4-J1-PDC line was cultured in Panc media, which includes all 6C/Colon 1B media components plus 100 ng/mL human FGF-10 (Thermo Fisher Scientific, cat. 100-26), 500 nM SB-431542 (Selleckchem, cat. S1067), and gastrin (Tocris, cat. 3006).
[…]

[1] = second compound 0.0316 µM, first compound 0.0316 µM
[2] = second compound 0.0316 µM, first compound 0.1 µM
[3] = second compound 0.0316 µM, first compound 0.316 µM
[4] = second compound 0.0316 µM, first compound 1 µM
[5] = second compound 0.0316 µM, first compound 3.16 µM
[6] = second compound 0.0316 µM, first compound 10 µM
[7] = second compound 0.1 µM, first compound 0.0316 µM
[8] = second compound 0.1 µM, first compound 0.1 µM
[9] = second compound 0.1 µM, first compound 0.316 µM
[10] = second compound 0.1 µM, first compound 1 µM
[11] = second compound 0.1 µM, first compound 3.16 µM
[12] = second compound 0.1 µM, first compound 10 µM
[13] = second compound 0.316 µM, first compound 0.0316 µM
[14] = second compound 0.316 µM, first compound 0.1 µM
[15] = second compound 0.316 µM, first compound 0.316 µM
[16] = second compound 0.316 µM, first compound 1 µM
[17] = second compound 0.316 µM, first compound 3.16 µM
[18] = second compound 0.316 µM, first compound 10 µM
[19] = second compound 1 µM, first compound 0.0316 µM
[20] = second compound 1 µM, first compound 0.1 µM
[21] = second compound 1 µM, first compound 0.316 µM
[22] = second compound 1 µM, first compound 1 µM
[23] = second compound 1 µM, first compound 3.16 µM
[24] = second compound 1 µM, first compound 10 µM
[25] = second compound 3.16 µM, first compound 0.0316 µM
[26] = second compound 3.16 µM, first compound 0.1 µM
[27] = second compound 3.16 µM, first compound 0.316 µM
[28] = second compound 3.16 µM, first compound 1 µM
[29] = second compound 3.16 µM, first compound 3.16 µM
[30] = second compound 3.16 µM, first compound 10 µM
[31] = second compound 10 µM, first compound 0.0316 µM
[32] = second compound 10 µM, first compound 0.1 µM
[33] = second compound 10 µM, first compound 0.316 µM
[34] = second compound 10 µM, first compound 1 µM
[35] = second compound 10 µM, first compound 3.16 µM
[36] = second compound 10 µM, first compound 10 µM
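Also: spheroids exposed to agents for 7 days before readout.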
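For viability, T/C in this document: percent viability relative to DMSO vehicle control wells taken as 100%.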

Which IC50 (second compound 0.0316 µM) does the source give for `C#Cc1c(F)ccc2cc(O)cc(-c3ncc4c(N5CC6CCC(C5)N6)nc(OCC56CCCN5CC(F)C6)nc4c3F)c12` (centres undefined) + Cc1cnc(CNC(=O)c2c(=O)c3ccc(N4CCCN(C)CC4)nc3n3c2sc2ccccc23)cn1 here?
Its IC50 is 4510 nM.

What about the IC50 (second compound 0.1 µM) of the same compound?
The IC50 was 422 nM.

What about the IC50 (second compound 0.316 µM) of the same compound?
The IC50 was under 31.6 nM.

And the IC50 (second compound 1 µM)?
Its IC50 is under 31.6 nM.

And the IC50 (second compound 3.16 µM)?
Its IC50 is 43.6 nM.

What about the IC50 (second compound 10 µM) of the same compound?
The IC50 was under 31.6 nM.

What about the viability, T/C [1] of the same compound?
The viability, T/C was 98.8%.

And the viability, T/C [2]?
Its viability, T/C is 88.4%.

What about the viability, T/C [3] of the same compound?
Its viability, T/C is 103%.

What about the viability, T/C [4] of the same compound?
The viability, T/C was 67.6%.

What about the viability, T/C [5] of the same compound?
The viability, T/C was 63.8%.

And the viability, T/C [6]?
Its viability, T/C is 27.8%.

What about the viability, T/C [7] of the same compound?
The viability, T/C was 64.3%.

What about the viability, T/C [8] of the same compound?
Its viability, T/C is 64.2%.

And the viability, T/C [9]?
Its viability, T/C is 51.9%.

What about the viability, T/C [10] of the same compound?
Its viability, T/C is 40.2%.

And the viability, T/C [11]?
The viability, T/C was 28.7%.

What about the viability, T/C [12] of the same compound?
The viability, T/C was 22.1%.

And the viability, T/C [13]?
The viability, T/C was 38.8%.

What about the viability, T/C [14] of the same compound?
The viability, T/C was 40.5%.

What about the viability, T/C [15] of the same compound?
Its viability, T/C is 48.3%.

What about the viability, T/C [16] of the same compound?
The viability, T/C was 40.8%.

What about the viability, T/C [17] of the same compound?
The viability, T/C was 39.2%.

What about the viability, T/C [18] of the same compound?
Its viability, T/C is 19%.

And the viability, T/C [19]?
Its viability, T/C is 34.7%.

And the viability, T/C [20]?
Its viability, T/C is 27.1%.

And the viability, T/C [21]?
Its viability, T/C is 40.9%.

And the viability, T/C [22]?
The viability, T/C was 19.8%.

What about the viability, T/C [23] of the same compound?
The viability, T/C was 20.8%.

And the viability, T/C [24]?
Its viability, T/C is 20.4%.

And the viability, T/C [25]?
The viability, T/C was 58.3%.

And the viability, T/C [26]?
Its viability, T/C is 27.7%.

What about the viability, T/C [27] of the same compound?
The viability, T/C was 24.1%.

And the viability, T/C [28]?
The viability, T/C was 15.6%.

And the viability, T/C [29]?
Its viability, T/C is 18.8%.

And the viability, T/C [30]?
Its viability, T/C is 7.2%.

What about the viability, T/C [31] of the same compound?
Its viability, T/C is 21%.

What about the viability, T/C [32] of the same compound?
Its viability, T/C is 18.5%.

What about the viability, T/C [33] of the same compound?
Its viability, T/C is 22.3%.

What about the viability, T/C [34] of the same compound?
Its viability, T/C is 16.8%.

What about the viability, T/C [35] of the same compound?
Its viability, T/C is 14.8%.

And the viability, T/C [36]?
The viability, T/C was 14.6%.

For `O=C(NO)c1cnc(N2CCN(S(=O)(=O)c3ccc4ccccc4c3)CC2)nc1` + Cc1cnc(CNC(=O)c2c(=O)c3ccc(N4CCCN(C)CC4)nc3n3c2sc2ccccc23)cn1, which IC50 (second compound 0.0316 µM) is on record?
The IC50 was 501 nM.

What about the IC50 (second compound 0.1 µM) of the same compound?
The IC50 was 147 nM.

What about the IC50 (second compound 0.316 µM) of the same compound?
Its IC50 is under 31.6 nM.

And the IC50 (second compound 1 µM)?
Its IC50 is under 31.6 nM.

What about the IC50 (second compound 3.16 µM) of the same compound?
The IC50 was under 31.6 nM.

And the IC50 (second compound 10 µM)?
Its IC50 is under 31.6 nM.

What about the viability, T/C [1] of the same compound?
Its viability, T/C is 101%.

What about the viability, T/C [2] of the same compound?
The viability, T/C was 96.1%.

What about the viability, T/C [3] of the same compound?
Its viability, T/C is 79.9%.

What about the viability, T/C [4] of the same compound?
Its viability, T/C is 5.15%.

And the viability, T/C [5]?
Its viability, T/C is 0.03%.

And the viability, T/C [6]?
Its viability, T/C is 0.07%.

What about the viability, T/C [7] of the same compound?
Its viability, T/C is 54.1%.

What about the viability, T/C [8] of the same compound?
Its viability, T/C is 66.6%.

What about the viability, T/C [9] of the same compound?
Its viability, T/C is 29.4%.

And the viability, T/C [10]?
Its viability, T/C is 0.37%.

And the viability, T/C [11]?
Its viability, T/C is 0.03%.

What about the viability, T/C [12] of the same compound?
Its viability, T/C is 0.07%.

And the viability, T/C [13]?
Its viability, T/C is 37.2%.

What about the viability, T/C [14] of the same compound?
Its viability, T/C is 41.2%.

And the viability, T/C [15]?
The viability, T/C was 28.5%.

What about the viability, T/C [16] of the same compound?
The viability, T/C was 0.06%.

What about the viability, T/C [17] of the same compound?
Its viability, T/C is 0.02%.

What about the viability, T/C [18] of the same compound?
The viability, T/C was 0.06%.

What about the viability, T/C [19] of the same compound?
The viability, T/C was 24.7%.

And the viability, T/C [20]?
Its viability, T/C is 24.8%.

What about the viability, T/C [21] of the same compound?
Its viability, T/C is 35.1%.

And the viability, T/C [22]?
Its viability, T/C is 0.04%.

And the viability, T/C [23]?
The viability, T/C was 0.03%.

What about the viability, T/C [24] of the same compound?
The viability, T/C was 0.08%.

What about the viability, T/C [25] of the same compound?
Its viability, T/C is 21.9%.

What about the viability, T/C [26] of the same compound?
The viability, T/C was 34.8%.

And the viability, T/C [27]?
The viability, T/C was 0.18%.

What about the viability, T/C [28] of the same compound?
Its viability, T/C is 0.07%.

And the viability, T/C [29]?
Its viability, T/C is 0.07%.

And the viability, T/C [30]?
Its viability, T/C is 0.09%.

And the viability, T/C [31]?
Its viability, T/C is 12.2%.

What about the viability, T/C [32] of the same compound?
Its viability, T/C is 16%.

And the viability, T/C [33]?
Its viability, T/C is 0.15%.

And the viability, T/C [34]?
The viability, T/C was 0.14%.

And the viability, T/C [35]?
Its viability, T/C is 0.16%.

And the viability, T/C [36]?
Its viability, T/C is 0.17%.
